Measured values: ChEMBL document CHEMBL4622908, “Two new secondary metabolites isolated from Avena sativa L. (Oat) seedlings and their effects on osteoblast differentiation” (Bioorg Med Chem Lett, 2020)

Tests used:
C2C12 [1] = assay: Induction of osteoblast differentiation in mouse C2C12 cells assessed as increase in ALP expression by ALP staining based assay; format: functional, cell-based
C2C12 [2] = assay: Cytotoxicity against mouse C2C12 cells assessed as reduction in cell viability at 0.3 to 10 uM by CCK8 assay; format: cell-based; details: c2c12, 10 µM

| SMILES | Activity (C2C12 [1]) | Activity (C2C12 [2]) |
| --- | --- | --- |
| C[C@@H]1O[C@@H](O[C@H]2[C@H](O[C@H]3CC[C@@]4(C)C(=CC[C@H]5[C@@H]6C[C@@H]7O[C@]8(CC[C@@](C)(CO[C@@H]9O[C@H](CO)[C@@H](O)[C@H](O)[C@H]9O)O8)[C@@H](C)[C@@H]7[C@@]6(C)CC[C@@H]54)C3)O[C@H](CO)[C@@H](O[C@@H]3O[C@H](CO)[C@@H](O)[C@H](O[C@@H]4O[C@H](CO)[C@@H](O)[C@H](O)[C@H]4O)[C@H]3O)[C@@H]2O)[C@H](O)[C@H](O)[C@H]1O | Dose-dependent effect | Non-Toxic |
| O=c1cc(-c2ccc(O)c(O)c2)oc2cc(O)c([C@@H]3O[C@H](CO[C@@H]4OC[C@@H](O)[C@H](O)[C@H]4O)[C@@H](O)[C@H](O)[C@H]3O)c(O)c12 | Dose-dependent effect | Non-Toxic |
| O=c1cc(-c2ccc(O)cc2)oc2cc(O)c([C@@H]3O[C@H](CO)[C@@H](O)[C@H](O)[C@H]3O[C@@H]3OC[C@H](O)[C@H](O)[C@H]3O)c(O)c12 | Dose-dependent effect | Non-Toxic |
| COC1=CC23/C=C/C(=O)OC[C@@H]4O[C@H](O[C@@H]5CC(C(=O)O)=C[C@@H](OC(=O)/C=C/c6cc(OC)c(c2c6)OC3C[C@H]1O)[C@H]5O)[C@@H](O)[C@H](O)[C@H]4O (stereo not given in full) | Dose-dependent effect | Non-Toxic |
| COc1cc(O)c2c(=O)cc(-c3ccc(O)cc3)oc2c1[C@@H]1O[C@H](CO)[C@@H](O)[C@H](O)[C@H]1O[C@@H]1O[C@@H](C)[C@H](O)[C@@H](O)[C@H]1O | Dose-dependent effect | Non-Toxic |
